Laboratory results from US20240092799A1, “MNK INHIBITORS” (Hepagene Therapeutics (HK) Limited, priority 2020, published 2024).
Where a name gives a salt, the structure may show the parent alone.

Columns and labels:
TMD-8 cell p-IF4E = assay: p-eIF4E Signaling Cellular Assay (CisBio HTRF) in TMD-8 cells; assay type: cell-based; conditions: Homo sapiens, TMD8, 40 min, 40 min treatment
Protocol: p-eIF4E Signaling Cellular Assay. Phosphorylated eIF4E is assayed using the CisBio p-Eif4E HTRF assay kit. Reagents and equipment used in the assay are listed below, followed by the protocol.
Cell medium: RPMI 1640+10% FBS+1*PS, TMD-8 were cultured as recommended and assayed in exponential growth phase. • a) Plate 30 μL of cells in 384 white assay plate in appropriate medium and proper cell density (20 k/well) based on Optimization at 37° C. under 5% CO2 atmosphere • b) Dispense 90 nL of compounds diluted in DMSO and treat for 40 min at 37° C. under 5% CO2 atmosphere • c) Remove cell supernatant by flicking the plate • d) Add 16 μL of supplemented lysis buffer (1×) for 30 minutes at RT under shaking • e) Add 4 μL of premixed antibody solutions prepared in the detection buffer. Cover the plate with a plate sealer. Incubate 0/N at RT • f) Read the fluorescence emission at 665 nm and 620 nm on Envision • g) Data analysis • (1) Ratio […] signal is calculated for each well • (2) % Inhibition is calculated as follow:
% inhibition=100−(Signalcmpd-SignalAve_PC)/(SignalAve_VC-SignalAve_PC)×100. • (3) Calculate IC50 and Plot effect-dose curve of cmpds:
Calculate IC50 by fitting % Inhibition values and log of compound concentrations to nonlinear regression (dose response−variable slope) with Graphpad 8.0.
Y=Bottom+(Top−Bottom)/(1+10^((Log IC50−X)*Hill Slope)) • X: log of Inhibitor concentration; Y: % Inhibition.

MNK2 = MNK2 (Homo sapiens (Human), UniProt Q9HBH9); assay: MNK Biochemical Enzymatic Assay (ADP-Glo), MNK2 binding assay
Chain of MNK2 (Q9HBH9 whole entry): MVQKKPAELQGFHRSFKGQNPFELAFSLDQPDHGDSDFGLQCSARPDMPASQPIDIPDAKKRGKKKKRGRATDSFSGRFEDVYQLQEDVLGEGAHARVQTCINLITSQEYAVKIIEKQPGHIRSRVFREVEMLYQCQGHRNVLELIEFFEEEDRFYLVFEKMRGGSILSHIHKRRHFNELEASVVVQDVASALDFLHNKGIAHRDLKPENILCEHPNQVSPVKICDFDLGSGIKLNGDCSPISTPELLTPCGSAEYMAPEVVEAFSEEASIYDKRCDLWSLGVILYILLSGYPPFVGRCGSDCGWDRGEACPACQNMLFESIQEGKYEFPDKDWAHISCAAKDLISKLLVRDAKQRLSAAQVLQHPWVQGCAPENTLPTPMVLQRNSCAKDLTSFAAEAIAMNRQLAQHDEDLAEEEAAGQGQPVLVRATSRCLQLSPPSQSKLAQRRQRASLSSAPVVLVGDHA
Outline: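 Human MNK1 or MNK2 was preincubated with a 10-point, 1:3 serial dilution of compound for 15 min at 25 °C. Substrate was then added and the reaction ran 60 min at 25 °C. ADP formed was read by ADP-Glo luminescence, and IC50 came from non-linear regression.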

Structure (SMILES)	IC50 (TMD-8 cell p-IF4E)	IC50 (MNK2)
Cc1cc(Nc2cc(Nc3ccc(N4CCN(CCO)CC4)cn3)ncn2)[n+]([O-])c2c1C(=O)NC21CCCCC1 [Compound XXIX-AAP, 2′-((6-((5-(4-(2-hydroxyethyl)piperazin-1-yl)pyridin-2-yl)amino)pyrimidin-4-yl)amino)-4′-methyl-5′-oxo-5′,6′-dihydrospiro[cyclohexane-1,7′-pyrrolo[3,4-b]pyridine]1′-oxide formate salt]	0.1 to 10 nM	0.1 to 10 nM
Cc1cc(Nc2cc(Nc3cccc(CO)n3)ncn2)[n+]([O-])c2c1C(=O)NC21CCCCC1 [Compound XXIX-AU, 2′-((6-((6-(hydroxymethyl)pyridin-2-yl)amino)pyrimidin-4-yl)amino)-4′-methyl-5′-oxo-5′,6′-dihydrospiro[cyclohexane-1,7′-pyrrolo[3,4-b]pyridine] 1′-oxide formate salt]	0.1 to 10 nM	0.1 to 10 nM
Cc1cc(Nc2cc(Nc3ncn(C)n3)ncn2)[n+]([O-])c2c1C(=O)NC21CCCCC1 [Compound XXIX-AD, 4′-methyl-2′-((6-((1-methyl-Ill-1,2,4-triazol-3-yl)amino)pyrimidin-4-yl)amino)-5′-oxo-5′,6′-dihydrospiro[cyclohexane-1,7′-pyrrolo[3,4-b]pyridine] 1′-oxide]	10 to 100 nM	0.1 to 10 nM
Cc1cc(Nc2cc(N[C@H]3C[C@@H](O)C3)ncn2)[n+]([O-])c2c1C(=O)NC21CCCCC1 [Compound XXIX-AP, 2′-((6-(((cis)-3-hydroxycyclobutyl)amino)pyrimidin-4-yl)amino)-4′-methyl-5′-oxo-5′,6′-dihydrospiro[cyclohexane-1,7′-pyrrolo[3,4-b]pyridine] 1′-oxide]	10 to 100 nM	0.1 to 10 nM
Cc1cc(Nc2cc(Nc3ccc(N4CCOCC4)cn3)ncn2)[n+]([O-])c2c1C(=O)NC21CCCCC1 [Compound XXIX-AAJ, 4′-methyl-2′-((6-((5-morpholinopyridin-2-yl)amino)pyrimidin-4-yl)amino)-5′-oxo-5′,6′-dihydrospiro[cyclohexane-1,7′-pyrrolo[3,4-b]pyridine] 1′-oxide]	0.1 to 10 nM	0.1 to 10 nM
Cc1cc(Nc2cc(N[C@@H]3CCC[C@H]3O)ncn2)[n+]([O-])c2c1C(=O)NC21CCCCC1 [Compound XXIX-X, 2′-((6-(((1R,2R)-2-hydroxycyclopentyl)amino)pyrimidin-4-yl)amino)-4′-methyl-5′-oxo-5′,6′-dihydrospiro[cyclohexane-1,7′-pyrrolo[3,4-b]pyridine] 1′-oxide]		10 to 100 nM
Cc1cc(Nc2ncnc3[nH]cnc23)[n+]([O-])c2c1C(=O)NC21CCCCC1 [Compound XXIX-O, 2′-((9H-purin-6-yl)amino)-4′-methyl-5′-oxo-5′,6′-dihydrospiro[cyclohexane-1,7′-pyrrolo[3,4-b]pyridine] 1′-oxide]		10 to 100 nM
Cc1cc(Nc2cc(NC(=O)N3CCCC3)ncn2)[n+]([O-])c2c1C(=O)NC21CCCCC1 [Compound XXIX-AQ, 4′-methyl-5′-oxo-2′-((6-(pyrrolidine-1-carboxamido)pyrimidin-4-yl)amino)-5′,6′-dihydrospiro[cyclohexane-1,7′-pyrrolo[3,4-b]pyridine] 1′-oxide]		10 to 100 nM
Cc1cc(Nc2cc(N[C@H]3CCC[C@@H]3O)ncn2)[n+]([O-])c2c1C(=O)NC21CCCCC1 [Compound XXIX-V, 2′-((6-(((1S,2S)-2-hydroxycyclopentyl)amino)pyrimidin-4-yl)amino)-4′-methyl-5′-oxo-5′,6′-dihydrospiro[cyclohexane-1,7′-pyrrolo[3,4-b]pyridine] 1′-oxide]		10 to 100 nM

Results, then the compound that gave them:

IC50 (TMD-8 cell p-IF4E)	IC50 (MNK2)	Structure (SMILES)
10 to 100 nM	0.1 to 10 nM	CN1CCN(c2ccc(Nc3cc(Nc4cc5c(s4)C(=O)NC54CCCCC4)ncn3)nc2)CC1 [Compound XXIII-T, 2′-((6-((5-(4-methylpiperazin-1-yl)pyridin-2-yl)amino)pyrimidin-4-yl)amino)spiro[cyclohexane-1,4′-thieno[2,3-c]pyrrol]-6′(5′H)-one]
10 to 100 nM	0.1 to 10 nM	Cc1cc2c(Nc3cc4c(s3)C(=O)NC43CCCCC3)ncnc2[nH]1 [Compound XVII-C, 2′-((6-methyl-7H-pyrrolo[2,3-d]pyrimidin-4-yl)amino)spiro[cyclohexane-1,4′-thieno[2,3-c]pyrrol]-6′(5′H)-one]
100 to 1000 nM	0.1 to 10 nM	CNC(=O)Nc1cc(Nc2cc3c(s2)C(=O)NC32CCCCC2)ncn1 [Compound XXIV-G, 1-methyl-3-(6-((6′-oxo-5′,6′-dihydrospiro[cyclohexane-1,4′-thieno[2,3-c]pyrrol]-2′-yl)amino)pyrimidin-4-yl)urea]
10 to 100 nM	0.1 to 10 nM	Cn1ccc(Nc2cc(Nc3cc4c(s3)C(=O)NC43CCCCC3)ncn2)n1 [Compound XXIII-P, 2′-((6-((1-methyl-1H-pyrazol-3-yl)amino)pyrimidin-4-yl)amino)spiro[cyclohexane-1,4′-thieno[2,3-c]pyrrol]-6′(5′H)-one]
100 to 1000 nM	0.1 to 10 nM	O=C1NC2(CCCCC2)c2cc(Nc3ncnc4c3CCN4)sc21 [Compound XXXI, 2′-((6,7-dihydro-5H-pyrrolo[2,3-d]pyrimidin-4-yl)amino)spiro[cyclohexane-1,4′-thieno[2,3-c]pyrrol]-6′(5′H)-one]
100 to 1000 nM	0.1 to 10 nM	O=C1NC2(CCCCC2)c2cc(Nc3ncnc4[nH]cnc34)sc21 [Compound XVII, 2′-((9H-Purin-6-yl)amino)spiro[cyclohexane-1,4′-thieno[2,3-c]pyrrol]-6′(5′H)-one]
	10 to 100 nM	Nc1cc(Nc2cc3c(s2)C(=O)NC32CCOCC2)ncn1 [Compound XXII, 2′-((6-Aminopyrimidin-4-yl)amino)-2,3,5,6-tetrahydrospiro[pyran-4,4′-thieno[2,3-c]pyrrol]-6′(5′H)-one]
	10 to 100 nM	O=C1NC2(CCCCC2)c2cc(Nc3cc(NC(=O)C4CC4)ncn3)sc21 [Compound XX-A, N-(6-((6′-Oxo-5′,6′-dihydrospiro[cyclohexane-1,4′-thieno[2,3-c]pyrrol]-2′-yl)amino)pyrimidin-4-yl)cyclopropanecarboxamide]
	> 1000 nM	O=C1NC2(CCCCC2)c2cc(Nc3cc(N4CCCCC4)ncn3)sc21 [Compound XXIII-E, 2′-((6-(Piperidin-1-yl)pyrimidin-4-yl)amino)spiro[cyclohexane-1,4′-thieno[2,3-c]pyrrol]-6′(5′H)-one]
	10 to 100 nM	O=C1NC2(CCCCC2)c2cc(Nc3cc(N[C@@H]4CCOC4)ncn3)sc21 [Compound XXIV-M, (R)-2′-((6-((tetrahydrofuran-3-yl)amino)pyrimidin-4-yl)amino)spiro[cyclohexane-1,4′-thieno[2,3-c]pyrrol]-6′(5′H)-one]
	10 to 100 nM	COCCNc1cc(Nc2cc3c(s2)C(=O)NC32CCCCC2)ncn1 [Compound XXIII-W, 2′-((6-((2-methoxyethyl)amino)pyrimidin-4-yl)amino)spiro[cyclohexane-1,4′-thieno[2,3-c]pyrrol]-6′(5′H)-one]
	10 to 100 nM	O=C1NC2(CCCCC2)c2cc(Nc3cc(N[C@@H]4CCCOC4)ncn3)sc21 [Compound XXIV-F, (R)-2′-((6-((tetrahydro-2H-pyran-3-yl)amino)pyrimidin-4-yl)amino)spiro[cyclohexane-1,4′-thieno[2,3-c]pyrrol]-6′(5′H)-one]
